Test results: ChEMBL document CHEMBL5335806, “Cytotoxic leuconoxine-type diazaspiroindole alkaloids isolated from Cryptolepis dubia” (Bioorg Med Chem Lett, 2024)
≈ marks a conversion by molar mass, not a printed value.

Tests used:
HT-29 = test: Cytotoxicity against human HT-29 cells assessed as inhibition of cell viability incubated for 72 hrs; type: functional, cell-based; details: HT-29, 72 h
MDA-MB-231 = test: Cytotoxicity against human MDA-MB-231 cells assessed as inhibition of cell viability incubated for 72 hrs; type: functional, cell-based; details: MDA-MB-231, 72 h
MDA-MB-435 = test: Cytotoxicity against human MDA-MB-435 cells assessed as inhibition of cell viability incubated for 72 hrs; type: functional, cell-based; details: MDA-MB-435, 72 h
OVCAR-3 = test: Cytotoxicity against human OVCAR-3 cells assessed as inhibition of cell viability incubated for 72 hrs; type: functional, cell-based; details: OVCAR-3, 72 h
[1] = tested on: Staphylococcus epidermidis; test: Antibacterial activity against Staphylococcus epidermidis by a two-fold serial dilution method; type: functional
Micrococcus luteus = test: Antibacterial activity against Micrococcus luteus by a two-fold serial dilution method; type: functional
Escherichia coli = test: Antibacterial activity against Escherichia coli TISTR 780 by a two-fold serial dilution method; type: functional
Salmonella typhimurium = test: Antibacterial activity against Salmonella typhimurium TISTR 291 by a two-fold serial dilution method; type: functional, Salmonella enterica subsp. enterica serovar Typhimurium; details: Salmonella enterica

Row | Structure (SMILES) | IC50 (HT-29) [µM] | IC50 (MDA-MB-231) [µM] | IC50 (MDA-MB-435) [µM] | IC50 (OVCAR-3) [µM] | MIC [1] [µg/mL] | MIC (Micrococcus luteus) [µg/mL] | MIC (Escherichia coli) [µg/mL] | MIC (Salmonella typhimurium) [µg/mL]
1 | CC[C@@]12CCCN3C(=O)C(Cl)=C4c5ccccc5N(C(=O)CC1)[C@]432 | > 10 | > 10 | > 10 | 5.9 | – | – | – | –
2 | CC[C@@]12CCCN3C(=O)C=C4c5ccccc5N(C(=O)CC1)[C@]432 | > 10 | > 10 | > 10 | 9.1 | 64 (≈ 208 µM) | 64 (≈ 208 µM) | 64 (≈ 208 µM) | 64 (≈ 208 µM)
